Reference: US20210309669A1, “Heterocyclic Spiro Compounds As MAGL Inhibitors” (Pfizer Inc., priority 2018, published 2021)
Where two headings read alike, the source gives them in different places.

What was measured:
[1] = target: T1, human recombinant FAAH (Homo sapiens, UniProt O00519); assay: FAAH inhibition enzymatic assay (Arachidonoyl-AMC substrate); type: biochemical; conditions: 30 minute incubation; geometric mean; read-out: FAAH (T = 30 min) IC50
T1 construct: purchased Cayman 10010183
T1 sequence (O00519 1-579): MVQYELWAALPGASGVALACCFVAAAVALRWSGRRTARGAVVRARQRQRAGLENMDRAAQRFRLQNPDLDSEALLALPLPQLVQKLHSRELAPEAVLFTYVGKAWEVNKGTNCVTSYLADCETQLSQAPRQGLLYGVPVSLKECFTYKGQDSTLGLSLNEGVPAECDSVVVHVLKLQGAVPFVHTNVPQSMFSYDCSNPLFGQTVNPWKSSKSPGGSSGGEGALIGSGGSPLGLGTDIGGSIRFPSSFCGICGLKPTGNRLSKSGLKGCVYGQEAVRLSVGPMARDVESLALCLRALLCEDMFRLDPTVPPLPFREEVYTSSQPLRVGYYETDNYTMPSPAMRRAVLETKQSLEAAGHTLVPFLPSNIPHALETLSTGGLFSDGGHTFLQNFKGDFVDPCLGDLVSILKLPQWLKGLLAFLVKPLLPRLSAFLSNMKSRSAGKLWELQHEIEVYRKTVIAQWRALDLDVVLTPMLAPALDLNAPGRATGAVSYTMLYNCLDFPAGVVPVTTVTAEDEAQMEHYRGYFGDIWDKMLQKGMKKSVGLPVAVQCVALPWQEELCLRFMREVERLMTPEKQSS
Method: Assessment of FAAH inhibition utilizes human recombinant FAAH and the fluorescent substrate, Arachidonoyl-AMC. 400 nL of a test compound at decreasing concentrations was spotted into a 384-well back plate (PerkinElmer, 6007279) using a Labcyte Echo, followed by addition of 10 μl of FAAH enzyme (Cayman 10010183) in assay buffer (50 mM Tris, pH 9.0, 1 mM EDTA, i.e. ethylenediaminetetraacetic acid). After a 30 minute incubation at room temperature, 10 μL of Arachidonyl-AMCA was added in assay buffer with 16% DMSO. […] The reaction was allowed to progress for 60 minutes, after which the plate was read on a Molecular Devices FlexStation reader at an Ex/Em of 355/460. Percent inhibitions were calculated based on controls wells containing either no compound (0% inhibition) or a control compound (e.g., an FAAH inhibitor whose activity is known or was previously reported in the literature, such as one with about 100% inhibition). IC50 values were generated based on a four parameter fit model using ABASE software from IDBS.

[2] = In vitro intrinsic clearance in human liver microsomes (HLM); type: in vitro ADME; conditions: pH 7.4, 1 μM substrate, NADPH, 37° C., read-out: HLM CLint, app
Method: Test Compounds (Example 1-3 and Comparative-Compounds 1-4) were prepared as solutions in DMSO. The final concentration of DMSO in the incubation was <0.1% (v/v). […] (all final concentrations) in a 384-well plate. The reaction mixture was pre-warmed at 37° C. for 10 min prior to initiation of the incubation. The incubation was quenched with acetonitrile containing internal standards at the following time points: 1, 4, 7, 12, 20, 25, 45, and 60 min (individual incubation plates per time point) with a subsequent addition of water. The samples were vortexed followed by centrifugation and the supernatant was analyzed by LC/MS-MS using multiple reaction monitoring. For control experiments, NADPH was omitted from the incubations.
The microsomal t½ (min) was obtained from a log-linear plot of the substrate depletion versus incubation time and was scaled to hepatic intrinsic clearance (CLint,app (μL/min/mg protein) using the following equation: […]

[3] = target: T2, human recombinant Monoacylglycerol Lipase (Homo sapiens, UniProt Q99685); assay: MAGL inhibition enzymatic assay (7-HCA fluorogenic substrate); type: biochemical; conditions: geometric mean
T2 sequence (Q99685 1-303): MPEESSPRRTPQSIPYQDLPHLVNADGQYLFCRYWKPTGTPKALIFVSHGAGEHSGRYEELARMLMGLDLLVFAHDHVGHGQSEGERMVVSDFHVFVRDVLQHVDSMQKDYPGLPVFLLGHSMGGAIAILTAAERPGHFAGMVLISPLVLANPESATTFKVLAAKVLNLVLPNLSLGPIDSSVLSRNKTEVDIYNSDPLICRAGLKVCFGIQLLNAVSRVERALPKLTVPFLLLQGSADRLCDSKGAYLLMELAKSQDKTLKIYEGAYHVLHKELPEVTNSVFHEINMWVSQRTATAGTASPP
Method: Assessment of MAGL inhibition utilizes human recombinant Monoacylglycerol Lipase and the fluorogenic substrate 7-hydroxycoumarinyl arachidonate (7-HCA, Biomol ST-502). 400 nL of a test compound at decreasing concentration (ranging from 150 μM down to 1.5 nM) was spotted into a 384-well back plate (PerkinElmer, 6007279) using a Labcyte Echo, followed by addition of 10 μL of MAGL enzyme in assay buffer (50 mM HEPES, pH 7.4, 100 mM NaCl, 5 mM MgCl2, 0.1% Triton X-100 and 25% glycerin). An equal volume of 7-HCA in assay buffer with 10% DMSO was added either immediately (T=0 min) or after a 30 minute incubation (T=30 min) to initiate the reaction. The final concentration of MAGL enzyme was […] and 7-HCA substrate was 5 μM. After these dilutions, the final concentration of the test compound ranged from 3 μM to 0.03 nM. The reaction was allowed to progress for 60 minutes, after which the plate was read at an Ex/Em of 340/465. Percent inhibitions were calculated based on control wells containing no compound (0% inhibition) and a control compound (e.g., a MAGL inhibitor whose activity is known or was previously reported in the literature, such as one with about 100% inhibition). IC50 values were generated based on a four parameter fit model using ABASE software from IDBS. See e.g., Wang, Y. et al., “A Fluorescence-Based Assay for Monoacylglycerol Lipase Compatible with Inhibitor Screening,” Assay and Drug Development Technologies, 2008, Vol. 6 (3) pp 387-393 (reporting an assay for measuring MAGL activity).

[4] = 30 minute incubation before substrate, read-out: MAGL (T = 30 min) IC50
[5] = substrate added immediately (T=0 min), read-out: MAGL (T = 0 min) IC50

SMILES	IC50 [1] [nM]	microsomal CLint at 1 μM [2] [µL/min/mg]	IC50 [3, 4] [nM]	IC50 [3, 5] [nM]
O=C(OC(C(F)(F)F)C(F)(F)F)N1CCC2(CC1)C[C@@H](NS(=O)(=O)C1CC1)CO2 [Example 2, 1,1,1,3,3,3-Hexafluoropropan-2-yl (3R)-3-[(cyclopropylsulfonyl)amino]-1-oxa-8-azaspiro[4.5]decane-8-carboxylate]	> 30000	< 8	34.7	369
O=C(OC(C(F)(F)F)C(F)(F)F)N1CCC2(CCC(NS(=O)(=O)CC3CC3)CO2)CC1 (stereo not drawn) [Example 3, 1,1,1,3,3,3-Hexafluoropropan-2-yl 3-{[(cyclopropylmethyl)sulfonyl]amino}-1-oxa-9-azaspiro[5.5]undecane-9-carboxylate]	> 30000	< 8	28.5	298
O=C(OC(C(F)(F)F)C(F)(F)F)N1CCC2(CC1)C[C@@H](NS(=O)(=O)CC1CC1)CO2 [Example 1, 1,1,1,3,3,3-Hexafluoropropan-2-yl (3R)-3-{[(cyclopropylmethyl)sulfonyl]amino}-1-oxa-8-azaspiro[4.5]decane-8-carboxylate]	> 30000	< 8	27.6	292
